Measurements as given in patent US6689773B2, “Uracil substituted phenyl sulfamoyl carboxamides” (BASF Aktiengesellschaft, priority 2000, dated 2004).

How the values were obtained:
Type in all cases: in vivo
[1] = test system: ABUTH, Velvetleaf, Abutilon theophrasti, Medic.; assay: Postemergence herbicidal evaluation (Example 147); conditions: rating scale 0-9, two to three weeks after treatment
In short: (§1)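 Visual 0-9 rating against an untreated control, scored roughly two to three weeks after a postemergence spray of two-week-old seedlings. Dose equivalent about 0.016 to 0.032 kg/ha, delivered in 80/20 acetone/water with 1.0% SUN-IT II at 40 psi.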

[2] = test system: CHEAL, Lambsquarters, Chenopodium album, L. Common; assay: Postemergence herbicidal evaluation (Example 147); conditions: rating scale 0-9, two to three weeks after treatment
In short: as §1

[3] = test system: XANST, Cocklebur, Xanthium strumariam; assay: Postemergence herbicidal evaluation (Example 147); conditions: rating scale 0-9, two to three weeks after treatment
In short: as §1

[4] = test system: GLXMA, Soybean, Glycine max, (L.) Merr.; assay: Postemergence herbicidal evaluation (Example 147); conditions: rating scale 0-9, two to three weeks after treatment
In short: as §1

[5] = test system: ALOMY, Blackgrass, Alopecurus myosuroides; assay: Postemergence herbicidal evaluation (Example 147); conditions: rating scale 0-9, two to three weeks after treatment
In short: as §1

[6] = test system: DIGSA, Crabgrass, (Hairy) L, Digitaria sanguinalis, (L)Scop; assay: Postemergence herbicidal evaluation (Example 147); conditions: rating scale 0-9, two to three weeks after treatment
In short: as §1

[7] = test system: ZEAMX, Field corn, Zea mays L.; assay: Postemergence herbicidal evaluation (Example 147); conditions: rating scale 0-9, two to three weeks after treatment
In short: as §1

[8] = test system: IPOHE, Morningglory, Ivyleaf, Ipomoea hederacea, (L)Jacq.; assay: Postemergence herbicidal evaluation (Example 147); conditions: rating scale 0-9, two to three weeks after treatment
In short: as §1

[9] = test system: TRZAW, Winter wheat, Tritium Aestivum, L. (Winter); assay: Postemergence herbicidal evaluation (Example 147); conditions: rating scale 0-9, two to three weeks after treatment
In short: as §1

[10] = test system: SETVI, Green foxtail, Setaria viridis, (L.)Beau; assay: Postemergence herbicidal evaluation (Example 147); conditions: rating scale 0-9, two to three weeks after treatment
In short: as §1

[11] = test system: AMBEL, Ragweed, Common, Ambrosia artemiisifolia, L.; assay: Postemergence herbicidal evaluation (Example 147); conditions: rating scale 0-9, two to three weeks after treatment
In short: as §1

[12] = test system: ECHCG, Barnyardgrass, Echinochloa crusgalli, (L.)Beau; assay: Postemergence herbicidal evaluation (Example 147); conditions: rating scale 0-9, two to three weeks after treatment
In short: as §1

[13] = test system: ABUTH, Velvetleaf, Abutilon theophrasti, Medic.; assay: Preemergence herbicidal evaluation (Example 148); conditions: rating scale 0-9, two to four weeks after treatment
In short: (§2)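 Herbicidal effect is a visual score comparing treated plants with a control for stand, vigor, size, malformation and chlorosis. Treatment was a preemergence spray (~0.125–0.250 kg/ha, aqueous acetone); assessment came 2–4 weeks later.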

[14] = test system: CHEAL, Lambsquarters, Chenopodium album, L. Common; assay: Preemergence herbicidal evaluation (Example 148); conditions: rating scale 0-9, two to four weeks after treatment
In short: as §2

[15] = test system: XANST, Cocklebur, Xanthium strumariam; assay: Preemergence herbicidal evaluation (Example 148); conditions: rating scale 0-9, two to four weeks after treatment
In short: as §2

[16] = test system: GLXMA, Soybean, Glycine max, (L.) Merr.; assay: Preemergence herbicidal evaluation (Example 148); conditions: rating scale 0-9, two to four weeks after treatment
In short: as §2

[17] = test system: ALOMY, Blackgrass, Alopecurus myosuroides; assay: Preemergence herbicidal evaluation (Example 148); conditions: rating scale 0-9, two to four weeks after treatment
In short: as §2

[18] = test system: DIGSA, Crabgrass, (Hairy) L, Digitaria sanguinalis, (L)Scop; assay: Preemergence herbicidal evaluation (Example 148); conditions: rating scale 0-9, two to four weeks after treatment
In short: as §2

[19] = test system: ZEAMX, Field corn, Zea mays L.; assay: Preemergence herbicidal evaluation (Example 148); conditions: rating scale 0-9, two to four weeks after treatment
In short: as §2

[20] = test system: IPOHE, Morningglory, Ivyleaf, Ipomoea hederacea, (L)Jacq.; assay: Preemergence herbicidal evaluation (Example 148); conditions: rating scale 0-9, two to four weeks after treatment
In short: as §2

[21] = test system: TRZAW, Winter wheat, Tritium Aestivum, L. (Winter); assay: Preemergence herbicidal evaluation (Example 148); conditions: rating scale 0-9, two to four weeks after treatment
In short: as §2

[22] = test system: SETVI, Green foxtail, Setaria viridis, (L.)Beau; assay: Preemergence herbicidal evaluation (Example 148); conditions: rating scale 0-9, two to four weeks after treatment
In short: as §2

[23] = test system: AMBEL, Ragweed, Common, Ambrosia artemiisifolia, L.; assay: Preemergence herbicidal evaluation (Example 148); conditions: rating scale 0-9, two to four weeks after treatment
In short: as §2

[24] = test system: ECHCG, Barnyardgrass, Echinochloa crusgalli, (L.)Beau; assay: Preemergence herbicidal evaluation (Example 148); conditions: rating scale 0-9, two to four weeks after treatment
In short: as §2

Structure (SMILES): COc1ccc(CNS(=O)(=O)NC(=O)c2cc(-n3c(=O)cc(C(F)(F)F)n(C)c3=O)c(F)cc2Cl)cc1 [Example 82]
- Postemergence herbicidal rating ABUTH ([1]; rate 0.016 kg/ha): 9.0
- Postemergence herbicidal rating ABUTH ([1]; rate 0.032 kg/ha): 9.0
- Postemergence herbicidal rating CHEAL ([2]; rate 0.016 kg/ha): 9.0
- Postemergence herbicidal rating CHEAL ([2]; rate 0.032 kg/ha): 9.0
- Postemergence herbicidal rating XANST ([3]; rate 0.016 kg/ha): 9.0
- Postemergence herbicidal rating XANST ([3]; rate 0.032 kg/ha): 9.0
- Postemergence herbicidal rating GLXMA ([4]; rate 0.016 kg/ha): 8.0
- Postemergence herbicidal rating GLXMA ([4]; rate 0.032 kg/ha): 8.5
- Postemergence herbicidal rating ALMOY ([5]; rate 0.016 kg/ha): 1.0
- Postemergence herbicidal rating ALMOY ([5]; rate 0.032 kg/ha): 2.0
- Postemergence herbicidal rating DIGSA ([6]; rate 0.016 kg/ha): 3.0
- Postemergence herbicidal rating DIGSA ([6]; rate 0.032 kg/ha): 3.0
- Postemergence herbicidal rating ZEAMX ([7]; rate 0.016 kg/ha): 6.5
- Postemergence herbicidal rating ZEAMX ([7]; rate 0.032 kg/ha): 6.5
- Postemergence herbicidal rating IPOHE ([8]; rate 0.016 kg/ha): 9.0
- Postemergence herbicidal rating IPOHE ([8]; rate 0.032 kg/ha): 9.0
- Postemergence herbicidal rating TRZAW ([9]; rate 0.016 kg/ha): 5.5
- Postemergence herbicidal rating TRZAW ([9]; rate 0.032 kg/ha): 6.0
- Postemergence herbicidal rating SETVI ([10]; rate 0.016 kg/ha): 6.0
- Postemergence herbicidal rating SETVI ([10]; rate 0.032 kg/ha): 7.0
- Postemergence herbicidal rating AMBEL ([11]; rate 0.016 kg/ha): 9.0
- Postemergence herbicidal rating AMBEL ([11]; rate 0.032 kg/ha): 9.0
- Postemergence herbicidal rating ECHCG ([12]; rate 0.016 kg/ha): 7.0
- Postemergence herbicidal rating ECHCG ([12]; rate 0.032 kg/ha): 8.0
- Preemergence herbicidal rating ABUTH ([13]; rate 0.125 kg/ha): 9.0
- Preemergence herbicidal rating ABUTH ([13]; rate 0.25 kg/ha): 9.0
- Preemergence herbicidal rating CHEAL ([14]; rate 0.125 kg/ha): 9.0
- Preemergence herbicidal rating CHEAL ([14]; rate 0.25 kg/ha): 9.0
- Preemergence herbicidal rating XANST ([15]; rate 0.125 kg/ha): 9.0
- Preemergence herbicidal rating XANST ([15]; rate 0.25 kg/ha): 9.0
- Preemergence herbicidal rating GLXMA ([16]; rate 0.125 kg/ha): 9.0
- Preemergence herbicidal rating GLXMA ([16]; rate 0.25 kg/ha): 9.0
- Preemergence herbicidal rating ALMOY ([17]; rate 0.125 kg/ha): 0.0
- Preemergence herbicidal rating ALMOY ([17]; rate 0.25 kg/ha): 0.0
- Preemergence herbicidal rating DIGSA ([18]; rate 0.125 kg/ha): 4.0
- Preemergence herbicidal rating DIGSA ([18]; rate 0.25 kg/ha): 4.0
- Preemergence herbicidal rating ZEAMX ([19]; rate 0.125 kg/ha): 0.0
- Preemergence herbicidal rating ZEAMX ([19]; rate 0.25 kg/ha): 2.0
- Preemergence herbicidal rating IPOHE ([20]; rate 0.125 kg/ha): 9.0
- Preemergence herbicidal rating IPOHE ([20]; rate 0.25 kg/ha): 9.0
- Preemergence herbicidal rating TRZAW ([21]; rate 0.125 kg/ha): 0.0
- Preemergence herbicidal rating TRZAW ([21]; rate 0.25 kg/ha): 1.0
- Preemergence herbicidal rating SETVI ([22]; rate 0.125 kg/ha): 3.0
- Preemergence herbicidal rating SETVI ([22]; rate 0.25 kg/ha): 7.0
- Preemergence herbicidal rating AMBEL ([23]; rate 0.125 kg/ha): 9.0
- Preemergence herbicidal rating AMBEL ([23]; rate 0.25 kg/ha): 9.0
- Preemergence herbicidal rating ECHCG ([24]; rate 0.125 kg/ha): 3.0
- Preemergence herbicidal rating ECHCG ([24]; rate 0.25 kg/ha): 4.0
